Reference: patent US10888553B2, “Use of non-transition metal coordinated dipyridoxyl compounds to prevent and treat chemotherapy-induced PSN” (KARLSSON-TUNER INVEST AS, priority 2016, dated 2021)
Like-named read-outs stand apart in the source and are kept apart here.

What was measured:
[1] = relative to mangafodipir; cited from earlier work
[2] = system: CT26 colon cancer cells; conditions: cited from earlier work
[3] = patients, single dose, over a 5-day period; cited from earlier work
[4] = in vivo; cited from earlier work
[5] = Mn^2+ binding to fodipir; cited from earlier work
[6] = Zn^2+ binding to fodipir; cited from earlier work
[7] = Platinum (Pt) urine excretion in rats receiving oxaliplatin i.v. after i.v. mangafodipir, fodipir or saline (Example 2); type: in vivo, Wistar rats; conditions: 0-24 h urine; for recovery of oxaliplatin-derived Pt in urine, % of the administered dose: 26.4 μmol/kg i.v. 5 min before oxaliplatin 2 mg/kg i.v., administered Pt 277.5 μg, saline control 31.3%; for increase in Pt-excretion: versus saline control
Protocol: 2 male Wistar rats (approximately 250 g) were injected i.v., via one of the tail veins, with 0.25 ml mangafodipir (20 mg/kg; Lot no. 303001, Nycomed Imaging AS) or fodipir (17.4 mg/kg; Lot no. PKJ 1285/113-14, Nycomed Imaging AS), each corresponding to 26.4 μmol/kg. Another control rat received saline instead of mangafodipir or fodipir. […] The rats were then immediately placed in metabolic cages for urine collection over a period of 0-24 hours. The urine samples were thereafter stored at −80° C. until Pt analysis. Before analysis, the samples were thawed and extensively shaken to obtain homogenous samples. A five ml aliquot was taken from each sample and 5 ml concentrated nitric acid was added. The samples were then resolved in a microwave oven and thereafter diluted with distilled water. The Pt content of each sample was analyzed by ICP-MS (Inductively Coupled Plasma Mass Spectrometry). […] This sample was treated in an identical manner to that of the urine samples and analyzed for its Pt content. Results are presented as total 0-24 h urine Pt content, expressed as the total amount, as well as, as percentage of the injected dose.

[8] = Ca^2+ binding to fodipir; cited from earlier work
[9] = 10 μmol/kg mangafodipir in 14 of 15 cycles, accumulated dose 140 μmol/kg; patient showed PD-like neurological symptoms; cited from earlier work
[10] = cited from earlier work; for Mn^2+ content released from fodipir or its metabolites: intravenous, MRI dose 5-10 μmol/kg
[11] = cited from earlier work

## Cc1ncc(COP(=O)([O-])O)c(CN(CCN(CC(=O)O)Cc2c(COP(=O)([O-])O)cnc(C)c2O)CC(=O)O)c1O.Cc1ncc(COP(=O)([O-])O)c(CN(CCN(CC(=O)O)Cc2c(COP(=O)([O-])O)cnc(C)c2O)CC(=O)O)c1O.Cc1ncc(COP(=O)([O-])O)c(CN(CCN(CC(=O)O)Cc2c(COP(=O)([O-])O)cnc(C)c2O)CC(=O)O)c1O.Cc1ncc(COP(=O)([O-])O)c(CN(CCN(CC(=O)O)Cc2c(COP(=O)([O-])O)cnc(C)c2O)CC(=O)O)c1O.Cc1ncc(COP(=O)([O-])O)c(CN(CCN(CC(=O)O)Cc2c(COP(=O)([O-])O)cnc(C)c2O)CC(=O)O)c1O.[Ca+2].[Ca+2].[Ca+2].[Ca+2].[Mn+2] [calmangafodipir]
[1]
  manganese retention (and brain retention) reduced to: about 50%

## O=C(O)C(=O)O.[NH-][C@@H]1CCCC[C@H]1[NH-].[Pt+2] [oxaliplatin]
[2]; oxaliplatin alone
  killing of CT26 cells by oxaliplatin: killed CT26 cells in a concentration-dependent manner
[3]
  Pt dose excreted in feces: 2.1%
  Pt dose excreted in the urine: 53.8%
[4]
  terminal Pt half-life in red blood cells (RBC): about 50 days
  volume of distribution: about 600 litres

## Cc1ncc(COP(=O)(O)O)c(CN(CCN(CC(=O)O)Cc2c(COP(=O)(O)O)cnc(C)c2O)CC(=O)O)c1O [fodipir, N,N′-bis-(pyridoxyl-5-phosphate)-ethylenediamine-N,N′-diacetic acid]
[5]
  log formation constant (log KML): 15
[2]; fodipir 10 μM
  effect of fodipir on cell killing in the lower concentration range of oxaliplatin: additive effect
[2]; fodipir 100 μM alone
  cell killing activity of fodipir towards CT26 colon cancer cells: almost complete cell killing activity
[2]; fodipir 10, 30, 100 μM
  interference of fodipir with the cancer cell killing ability of oxaliplatin: Neither 10, 30, nor 100 μM fodipir interfered negatively
[6]
  log formation constant (log KML): 18
[7]
  recovery of oxaliplatin-derived Pt in urine, % of the administered dose: 43.4%
  increase in Pt-excretion: 40.6%
[8]
  log formation constant (log KML): 9

## mangafodipir
[9]
  brain MRI finding: increased T1-weighted signal intensity in the basal ganglia
[10]; MRI dose 5-10 μmol/kg injected
  Mn^2+ that stays bound: 20%
[10]
  Mn^2+ content released from fodipir or its metabolites: About 80%
[10]; listed as Mangafodipir
  Mn^2+ content released from fodipir or its metabolites: about 80%
[7]
  recovery of oxaliplatin-derived Pt in urine, % of the administered dose: 33.8%
  increase in Pt-excretion: 8.0%
[11]; after eight cycles with 5 μmol/kg mangafodipir co-treatment (accumulated 40 μmol/kg), before 11.8±5.5 nM
  mean plasma Mn content: 19.8 ± 4.3 nM
[11]; patients with PSN grade 2 or worse on a 1-3 scale
  pre-existing oxaliplatin-induced PSN after combined oxaliplatin and mangafodipir treatment: improved
